Laboratory results reported in PMC9025555, “Chiral Recognition R- and RS- of New Antifungal: Complexation/Solubilization/Dissolution Thermodynamics and Permeability Assay” (Pharmaceutics, 2022).
Several values for one entry are separate records, joined by “and”; a condition that tells them apart may be missing. Equal values may be shown once.

Assays:
[1] = in vitro; format: in vitro ADME
Experimental: Permeability coefficients of RS-186 and R-98 were measured through the PermeaPad barrier (PHABIOC, Germany, Espelkamp, www.permeapad.com, accessed on 20 May 2021) of an effective surface area of 0.785 cm^2 in a vertical type of Franz diffusion cell (PermeGear, Inc., Hellertown, PA, USA) with 7 mL volume. PermeaPad is a biomimetic membrane proposed by di Cagno and Bauer-Brandl for the fast screening of the permeability of the marketed drugs and drug-like compounds. In brief, the barrier was mounted between the donor and receptor chambers. The donor chamber was filled with a stock solution of the investigated substance in buffer solution at pH 2.0 or pH 7.4 and was stirred vigorously during the permeability experiment. The receptor compartment contained 1 mL of the respective fresh buffer. The system was thermostated at 310.15 ± 0.1 K. A probe of 0.5 mL was withdrawn every 30 min from the receptor chamber and replaced with an equal amount of the respective fresh buffer. The permeation process followed the reverse dialysis. The withdrawn samples were analyzed in 96-well UV black plate (Costar) via spectrophotometer (Spectramax 190; Molecular devices, Molecular Devices Corporation, California, CA, USA) at the appropriate wavelength. The permeation profiles were plotted as the amount of the permeated drug over the surface area ( dQ/A ) versus the time ( t ). The flux ( J ) was calculated as a slope of permeation profiles according to the equation:(6) J=dQ/A×dt
The apparent permeability coefficient ( Papp ) was calculated by normalizing the flux measured over the concentration of the drug in the donor compartment ( C0 ), as described by the equation:(7) Papp=J/Co
Each permeability experiment was repeated at least 3 times and the average value of Papp was determined.

[2] = Complexation parameters with 2-HP-β-CD from phase-solubility diagrams; format: physicochemical; details: for increase of the complex stability as compared to L-173: acidic buffer; for Complexation efficiency (CE) / apparent stability constant (KCS): 2-HP-β-CD
Experimental: Thermodynamic functions of the complexation process were determined from the phase solubility diagrams following Higuchi and Connors. The linear AL-type phase-solubility diagrams evidenced the complexes of the first order in respect to cyclodextrin. The equilibrium of the complex formation with 1:1 stoichiometry in the cyclodextrin solution can be described in the following manner:(1) D+CD↔KCD⋅CD where D is the drug molecule, CD is the cyclodextrin molecule, and D·CD is drug/cyclodextrin complex. Respectively, the complexation constant ( KC ) can be expressed by the equation:(2) KC=[D⋅CD]/[D][CD] where [D·CD] is the complex concentration, [CD] is the cyclodextrin concentration, and [D] is the drug concentration. A plot of total solubility ( S2 expressed in molarity—M) in the presence of CD versus CD concentration ( CCD ) (a phase-solubility profile) gives a straight line with a slope equal to (KCS⋅S20/(1+KCS⋅S20)) and intercept equal to S20 from which the apparent stability constants ( KCS ) were estimated via Higuchi–Connors equation [15]:(3) KCS=slope/S20⋅(1−slope), where S20 is the intrinsic solubility of the drug at designated pH in the absence of CD and the slope is the corresponding slope of the phase-solubility diagram.
From CE, the (D:CD) ratio can be derived, which is useful for the estimation of the solubility improvement in CD solutions. Using the CE value, the molar ratio (Drug:CD) was determined:(5) Drug:CD=1:(1+1/CE)

O=C1S/C(=C\c2ccc(Cl)cc2)C(=O)N1CC(O)CN1CCN(CC(O)(Cn2cncn2)c2ccc(F)cc2F)CC1 (stereo not drawn) [RS-186, (Z)-5-(4-chlorobenzylidene)-3-(3-(4-(2-(2,4-difluorophenyl)-2-hydroxy-3-(1H-1,2,4-triazol-1-yl)propyl)piperazin-1-yl)-2-hydroxypropyl)thiazolidine-2,4-dione]
permeability decrease up to 0.03 M concentration of CD in donor solution ([1]; buffer pH 7.4): 8.89 fold | permeability classification (developers of PermeaPad) ([1]; in the presence of 0.01 M CD): low | permeability reduction up to 0.03 M concentration of CD in donor solution ([1]; pH 2.0): 8.72 fold | Permeability Coefficient (Papp) ([1]; pH 2.0, CD 0.01087 M, 310.15 K): (1.12 ± 0.09) × 10^−6 cm·s^−1 | permeability classification (developers of PermeaPad) ([1]; pure buffers, classification of ref 18): medium permeable | increase of the complex stability as compared to L-173 ([2]; 298.15 K): ~2.8 fold | increase of the complex stability as compared to L-173 ([2]; 315.15 K): ~1.8 fold | Complexation efficiency (CE) ([2]; pH 2.0, 298.15 K): 35.4% | apparent stability constant (KCS) ([2]; pH 2.0, 298.15 K): 708.9 M⁻¹ and 708.9 ± 71.4 M⁻¹ | Complexation efficiency (CE) ([2]; pH 2.0, 303.15 K): 36.9% | apparent stability constant (KCS) ([2]; pH 2.0, 303.15 K): 688.0 ± 60.3 M⁻¹ | Complexation efficiency (CE) ([2]; pH 2.0, 310.15 K): 39.1% | apparent stability constant (KCS) ([2]; pH 2.0, 310.15 K): 646.7 ± 61.5 M⁻¹ | Complexation efficiency (CE) ([2]; pH 2.0, 313.15 K): 43.2% | apparent stability constant (KCS) ([2]; pH 2.0, 313.15 K): 623.6 ± 60.0 M⁻¹ | ability for complex formation with CD, racemic compound as compared to R-isomer ([2]; pH 2.0 stability constants (Table 2)): 1.3 fold | CE decrease with the temperature growth ([2]; pH 7.4): 17 fold | Complexation efficiency (CE) ([2]; pH 7.4, 298.15 K): 10.3% | Complexation efficiency (CE) ([2]; pH 7.4, 303.15 K): 4.6% | Complexation efficiency (CE) ([2]; pH 7.4, 310.15 K): 1.7% | Complexation efficiency (CE) ([2]; pH 7.4, 313.15 K): 0.6%
